Laboratory results reported in US20160002248A1, “GLS1 INHIBITORS FOR TREATING DISEASE” (Board of Regents, The University of Texas System, priority 2014, published 2016).

Tests used:
[1] = target: T1, purified recombinant human GAC (GLS1) (Homo sapiens, UniProt O94925); test: GLS1 Enzymatic Activity Assay (dual-coupled enzymatic assay); assay type: biochemical
T1 sequence (O94925 55-598 isoform O94925-3 limits assumed): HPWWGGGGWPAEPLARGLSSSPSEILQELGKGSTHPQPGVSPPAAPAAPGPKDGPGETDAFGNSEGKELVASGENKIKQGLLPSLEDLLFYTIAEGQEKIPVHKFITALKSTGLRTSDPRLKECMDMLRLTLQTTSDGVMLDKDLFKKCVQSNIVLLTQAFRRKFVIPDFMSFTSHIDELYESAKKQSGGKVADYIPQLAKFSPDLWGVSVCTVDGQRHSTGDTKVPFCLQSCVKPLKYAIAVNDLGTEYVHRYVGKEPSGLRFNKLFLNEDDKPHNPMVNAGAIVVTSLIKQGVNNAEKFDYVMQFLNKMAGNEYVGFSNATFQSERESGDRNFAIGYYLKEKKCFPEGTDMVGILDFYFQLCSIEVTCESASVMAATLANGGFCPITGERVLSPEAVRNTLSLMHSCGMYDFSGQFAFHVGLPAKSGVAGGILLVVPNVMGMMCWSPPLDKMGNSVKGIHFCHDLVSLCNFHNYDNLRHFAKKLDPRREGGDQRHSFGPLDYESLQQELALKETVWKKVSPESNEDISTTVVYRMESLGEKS
Summary of the method: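 Recombinant human GAC (2 nM) preincubated with 50 mM potassium phosphate, then inhibitor (10 min each, RT); 1 mM glutamine, pH 7.4 Hepes buffer, 1% DMSO. Glutamate coupled via glutamate oxidase/HRP to resorufin (Ex 530/Em 590), kinetic or 20-min endpoint; IC50 by four-parameter logistic fit.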

A549 cells = test: Proliferation Assay (A549 cell viability, Cell Titer Fluor); assay type: cell-based; conditions: Homo sapiens, 72 hours
Summary of the method: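 Fluorescence read-out (Cell Titer Fluor, 30 min at 37 °C after reagent) after 72 h compound exposure of A549 cells; EC50 by four-parameter logistic curve fit. Cells: 1000/well, RPMI 1640 + 10% dialyzed FBS, 0.5% DMSO final.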

| Compound | IC50 [1] | EC50 (A549 cells) |
| --- | --- | --- |
| CC(C)OC(=O)N1CC(c2cc3cc(CCCCn4cc(C(=O)NCc5cc(C(F)(F)F)ccn5)nn4)nnc3[nH]2)C1 [Example 200, propan-2-yl 3-(3-{4-[4-({[4-(trifluoromethyl)pyridin-2-yl]methyl}carbamoyl)-1H-1,2,3-triazol-1-yl]butyl}-7H-pyrrolo[2,3-c]pyridazin-6-yl)azetidine-1-carboxylate] | < 100 nM | 100 to 500 nM |
| CC(C)(C)OC(=O)N1CC(c2cc3cc(CCCCn4cc(C(=O)NCc5ccc(C(F)(F)F)cn5)nn4)nnc3[nH]2)C1 [Example 201, tert-butyl 3-(3-{4-[4-({[5-(trifluoromethyl)pyridin-2-yl]methyl)carbamoyl)-1H-1,2,3-triazol-1-yl]butyl}-7H-pyrrolo[2,3-c]pyridazin-6-yl)azetidine-1-carboxylate] | < 100 nM | 100 to 500 nM |
| Cc1ccc(CNC(=O)c2cn(CCCCc3cc4cc(-c5cccc(F)c5)[nH]c4nn3)nn2)cn1 [Example 202, 1-{4-[6-(3-fluorophenyl)-7H-pyrrolo[2,3-c]pyridazin-3-yl]butyl}-N-[(6-methylpyridin-3-yl)methyl]-1H-1,2,3-triazole-4-carboxamide] | < 100 nM | 100 to 500 nM |
| Cc1ccc(CNC(=O)c2cn(CCCCc3cc4cc(-c5cccc(C(F)(F)F)c5)[nH]c4nn3)nn2)cn1 [Example 203, N-[(6-methylpyridin-3-yl)methyl]-1-(4-{6-[3-(trifluoromethyl)phenyl]-7H-pyrrolo[2,3-c]pyridazin-3-yl}butyl)-1H-1,2,3-triazole-4-carboxamide] | < 100 nM | 100 to 500 nM |
| O=C(NCc1cccc(OC(F)(F)F)c1)c1cn(CCCCc2cc3cc(-c4ccccc4F)[nH]c3nn2)nn1 [Example 204, 1-{4-[6-(2-fluorophenyl)-7H-pyrrolo[2,3-c]pyridazin-3-yl]butyl}-N-{[3-(trifluoromethoxy)phenyl]methyl}-1H-1,2,3-triazole-4-carboxamide] | < 100 nM | 500 to 5000 nM |
| O=C(NCc1cc(OC(F)(F)F)ccc1F)c1cn(CCCCc2cc3cc(-c4ccccc4F)[nH]c3nn2)nn1 [Example 205, N-{[2-fluoro-5-(trifluoromethoxy)phenyl]methyl}-1-(4-[6-(2-fluorophenyl)-7H-pyrrolo[2,3-c]pyridazin-3-yl]butyl)-1H-1,2,3-triazole-4-carboxamide] | < 100 nM | 100 to 500 nM |
| CC(C)OC(=O)N1CC(c2cc3cc(CCCCn4cc(C(=O)NCc5ccc(C(F)(F)F)cn5)nn4)nnc3[nH]2)C1 [Example 206, propan-2-yl 3-(3-{4-[4-({[5-(trifluoromethyl)pyridin-2-yl]methyl}carbamoyl)-1H-1,2,3-triazol-1-yl]butyl}-7H-pyrrolo[2,3-c]pyridazin-6-yl)azetidine-1-carboxylate] | < 100 nM | 100 to 500 nM |
| O=C(NCc1ccc(C(F)(F)F)nc1)c1cn(CCCCc2cc3c(C4CC4)c(C4CC4)[nH]c3nn2)nn1 [Example 207, 1-(4-{5,6-dicyclopropyl-7H-pyrrolo[2,3-c]pyridazin-3-yl}butyl)-N-{[6-(trifluoromethyl)pyridin-3-yl]methyl}-1H-1,2,3-triazole-4-carboxamide] | < 100 nM | 100 to 500 nM |
| O=C(NCc1ccc(C(F)(F)F)cn1)c1cn(CCCCc2cc3c(C4CC4)c(C4CC4)[nH]c3nn2)nn1 [Example 208, 1-(4-{5,6-dicyclopropyl-7H-pyrrolo[2,3-c]pyridazin-3-yl}butyl)-N-{[5-(trifluoromethyl)pyridin-2-yl]methyl}-1H-1,2,3-triazole-4-carboxamide] | < 100 nM | 100 to 500 nM |
| Cc1ccc(CNC(=O)c2cn(CCCCc3cc4cc(-c5ccccc5)[nH]c4nn3)nn2)cn1 [Example 209, N-[(6-methylpyridin-3-yl)methyl]-1-(4-{6-phenyl-7H-pyrrolo[2,3-c]pyridazin-3-yl}butyl)-1H-1,2,3-triazole-4-carboxamide] | < 100 nM | 100 to 500 nM |
